Measured values taken from patent US9290476B2, “Methylene linked quinolinyl modulators of RORγt” (Janssen Pharmaceutica NV, priority 2012, dated 2016).
Structures can show the parent of a compound that is named as a salt.

How the values were obtained:
[1] = biological target: human RORγt ligand binding domain (RORγt LBD) (Homo sapiens (Human), UniProt P51449); assay: RORγt ThermoFluor assay (thermal shift binding affinity); conditions: estimated from thermal shift
Outline: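 Thermal shift used 0.065 mg/mL RORγt LBD with 60 μM 1,8-ANS in 100 mM Hepes pH 7.0, 10 mM NaCl, 2.5 mM GSH and 0.002% Tween-20, heated at 1 °C/min. Fluorescence was excited at 380–400 nm and emission read at 500 nm.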

[2] = biological target: human RORγt LBD (Homo sapiens (Human), UniProt P51449); assay: RORγt reporter assay (GAL4-RORγt LBD luciferase in HEK293T cells); type: cell-based; conditions: for IC50: HEK293T cells, 24 hours compound treatment; for inhibition at 6 µM: HEK-293T, read-out: RORγt reporter Assay, % inhibition @ 6 μM, HEK293T cells, 6 μM
Outline: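 HEK293T cells transiently co-transfected with GAL4-DBD–wild-type human RORγt LBD (pBIND) and GAL4-responsive firefly luciferase reporter (pGL4.31); renilla luciferase from pBIND normalises transfection/viability. Cells in phenol-red-free DMEM, 5% lipid-reduced FCS, treated with compound 24 h. Firefly/renilla ratio plotted against compound concentration.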

[3] = tested on: IL-17 production by CD4 T cells; assay: Human Th17 assay (IL-17 production by CD4 T cells under Th17 differentiation); type: cell-based; conditions: Homo sapiens, CD4+ T, 72 h, human CD4+ T cells, IL-17 after 3 days; read-out: Human Th17 Assay, IC50 μM
Outline: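 Healthy-donor peripheral CD4+ T cells (1.5×10^5/well) preincubated 1 h with titrated compound (0.2% DMSO), then differentiated with anti-CD3/CD28 beads, anti-IL4, anti-IFNγ, IL1β, IL23, IL6, TGFβ and IL2 for 3 days at 37 °C. Supernatant IL-17 quantified by MSD electrochemiluminescence against a standard curve; IC50 fitted.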

Sequence of human RORγt LBD (P51449 258-518): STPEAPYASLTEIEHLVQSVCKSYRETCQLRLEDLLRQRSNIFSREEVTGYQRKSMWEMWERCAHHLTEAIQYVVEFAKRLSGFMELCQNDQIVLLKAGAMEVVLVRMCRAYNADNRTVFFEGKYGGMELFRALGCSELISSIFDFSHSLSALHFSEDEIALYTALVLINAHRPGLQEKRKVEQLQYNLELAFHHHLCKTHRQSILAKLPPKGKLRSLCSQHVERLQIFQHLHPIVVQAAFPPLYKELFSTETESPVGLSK
Sequence of human RORγt ligand binding domain (RORγt LBD) (P51449 other isoform, or with tags, fused parts or gaps): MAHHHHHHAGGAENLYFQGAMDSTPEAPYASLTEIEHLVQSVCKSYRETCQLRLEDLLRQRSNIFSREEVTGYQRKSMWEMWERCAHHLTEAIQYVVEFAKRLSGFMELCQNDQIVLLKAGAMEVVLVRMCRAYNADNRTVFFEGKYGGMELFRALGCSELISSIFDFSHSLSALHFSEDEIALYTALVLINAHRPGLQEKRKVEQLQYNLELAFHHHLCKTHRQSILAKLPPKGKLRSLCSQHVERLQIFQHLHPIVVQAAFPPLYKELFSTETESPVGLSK

Kd [1] [nM]	IC50 [2] [µM]	inhibition at 6 µM [2] [%]	IC50 [3] [µM]	SMILES
53	0.18	100	0.2	COc1nc2c(C)cc(C(O)(c3ccc(Cl)cc3)c3cncn3C)cc2c(Cl)c1Cc1ccc(-n2cccn2)cc1 (stereo not shown) [Example 28A, (3-(4-(1H-Pyrazol-1-yl)benzyl)-4-chloro-2-methoxy-8-methylquinolin-6-yl)(4-chlorophenyl)(1-methyl-1H-imidazol-5-yl)methanol.TFA]
40	0.18	98	0.1	COc1nc2ccc(C(O)(c3ccc(Cl)cc3)c3cncn3C)cc2c(Cl)c1Cc1cc2ccccc2s1 (stereo not shown) [Example 36A, (3-(Benzo[b]thiophen-2-ylmethyl)-4-chloro-2-methoxyquinolin-6-yl)(4-chlorophenyl)(1-methyl-1H-imidazol-5-yl)methanol]
7.8	0.028	100	0.12	COc1nc2ccc(C(O)(c3ccc(C(F)(F)F)nc3)c3cncn3C)cc2c(Cl)c1Cc1cc2ccccc2s1 (stereo not shown) [Example 37A, (3-(Benzo[b]thiophen-2-ylmethyl)-4-chloro-2-methoxyquinolin-6-yl)(1-methyl-1H-imidazol-5-yl)(6-(trifluoromethyl)pyridin-3-yl)methanol.TFA]
0.024	0.0025	94	0.0015	COc1nc2ccc(C(O)(c3sc(C)nc3C)c3cnnn3C)cc2c(Cl)c1Cc1ccc(C(F)(F)F)cc1 (stereo not shown) [Example 79C, (4-Chloro-2-methoxy-3-(4-(trifluoromethyl)benzyl)quinolin-6-yl)(2,4-dimethylthiazol-5-yl)(1-methyl-1H-1,2,3-triazol-5-yl)methanol]

Further lines, the compound ahead of its results:

SMILES	Kd [1] [nM]	IC50 [2] [µM]	inhibition at 6 µM [2] [%]	IC50 [3] [µM]
COc1ccc(C(O)(c2ccc3nc(OC)c(Cc4ccc(-n5cccn5)cc4)c(Cl)c3c2)c2cncn2C)cn1 (stereo not shown) [Example 22, (3-(4-(1H-Pyrazol-1-yl)benzyl)-4-chloro-2-methoxyquinolin-6-yl)(6-methoxypyridin-3-yl)(1-methyl-1H-imidazol-5-yl)methanol.TFA]	2.8	0.091	96	0.016
Cn1cncc1C(O)(c1ccc(C(F)(F)F)nc1)c1ccc2nc(Cl)c(Cc3ccc(-n4cccn4)cc3)c(Cl)c2c1 (stereo not shown) [Example 23, (3-(4-(1H-Pyrazol-1-yl)benzyl)-2,4-dichloroquinolin-6-yl)(1-methyl-1H-imidazol-5-yl)(6-(trifluoromethyl)pyridin-3-yl)methanol.TFA]	4	0.014	95	0.15
CN(C)c1ccc(C(O)(c2ccc3nc(Cl)c(Cc4ccc(-n5cccn5)cc4)c(Cl)c3c2)c2cncn2C)cc1 (stereo not shown) [Example 25, (3-(4-(1H-Pyrazol-1-yl)benzyl)-2,4-dichloroquinolin-6-yl)(4-(dimethylamino)phenyl)(1-methyl-1H-imidazol-5-yl)methanol.TFA]	440	0.33	87	0.38
Cn1cncc1C(O)(c1ccc2nc(Cl)c(Cc3ccc(-n4cccn4)cc3)c(Cl)c2c1)c1cncn1C [Example 30, (3-(4-(1H-Pyrazol-1-yl)benzyl)-2,4-dichloroquinolin-6-yl)bis(1-methyl-1H-imidazol-5-yl)methanol.TFA]	2.2	0.025	98	0.063
COc1nc2ccc(C(O)(c3ccc(Cl)cc3)c3cncn3C)cc2c(Cl)c1Cc1ccc(S(C)(=O)=O)cc1 (stereo not shown) [Example 31, (4-Chloro-2-methoxy-3-(4-(methylsulfonyl)benzyl)quinolin-6-yl)(4-chlorophenyl)(1-methyl-1H-imidazol-5-yl)methanol.TFA]	64	0.19	103	0.28
OC(c1cccnc1)(c1cccc(Cl)c1)c1ccc2nc(Cl)c(Cc3cccs3)c(Cl)c2c1 (stereo not shown) [Example 32, (3-Chlorophenyl)(2,4-dichloro-3-(thiophen-2-ylmethyl)quinolin-6-yl)(pyridin-3-yl)methanol.TFA]	33	0.11	103	1.8
COc1nc2ccc(C(O)(c3ccc(Cl)cc3)c3cncn3C)cc2c(OC)c1Cc1ccc(-n2cccn2)cc1 (stereo not shown) [Example 34, (3-(4-(1H-Pyrazol-1-yl)benzyl)-2,4-dimethoxyquinolin-6-yl)(4-chlorophenyl)(1-methyl-1H-imidazol-5-yl)methanol.TFA]	250	0.46	101	1.8
OC(c1ccc(Cl)cc1)(c1cccnc1)c1ccc2nc(Cl)c(Cc3ccc(-n4cccn4)cc3)c(Cl)c2c1 (stereo not shown) [Example 45, (3-(4-(1H-Pyrazol-1-yl)benzyl)-2,4-dichloroquinolin-6-yl)(4-chlorophenyl)(pyridin-3-yl)methanol]	68	0.13	103	0.1
COc1ccc(C(O)(c2cccnc2)c2ccc3nc(Cl)c(Cc4ccc(-n5cccn5)cc4)c(Cl)c3c2)cc1 (stereo not shown) [Example 47, (3-(4-(1H-Pyrazol-1-yl)benzyl)-2,4-dichloroquinolin-6-yl)(4-methoxyphenyl)(pyridin-3-yl)methanol]	140	0.17	102	0.18
OC(c1cccnc1)(c1cccc(F)c1)c1ccc2nc(Cl)c(Cc3ccc(-n4cccn4)cc3)c(Cl)c2c1 (stereo not shown) [Example 48, (3-(4-(1H-Pyrazol-1-yl)benzyl)-2,4-dichloroquinolin-6-yl)(3-fluorophenyl)(pyridin-3-yl)methanol]	10	0.058	100	0.04
Cc1cc(C(O)(c2ccc(Cl)cc2)c2cncn2C)cc2c(Cl)c(Cc3ccc(-n4cccn4)cc3)c(Cl)nc12 (stereo not shown) [Example 85, (3-(4-(1H-Pyrazol-1-yl)benzyl)-2,4-dichloro-8-methylquinolin-6-yl)(4-chlorophenyl)(1-methyl-1H-imidazol-5-yl)methanol]	85	0.29	97	0.3
COc1nc2ccc(C(O)(c3cnc(C)n3C)c3cnc(C)n3C)cc2c(Cl)c1Cc1ccc(C(F)(F)F)cc1 [Example 93, (4-Chloro-2-methoxy-3-(4-(trifluoromethyl)benzyl)quinolin-6-yl)bis(1,2-dimethyl-1H-imidazol-5-yl)methanol]	0.017	0.16	87	0.01
